This note sets out measurements from patent publication US6706700B2, “14β,15β-methylene-17α-hydroxymethyl-androgens” (Akzo-Nobel, N.V., priority 1999, dated 2004).

What is called melting point is the temperature, or range, at which the solid turns liquid.

System in one data set: not given
Assay: not given
Conditions: not given
Take `C[C@@H]1CC2=CC(=O)CC[C@@H]2[C@H]2CC[C@]3(C)[C@H](CO)C[C@H]4C[C@]43[C@@H]21` [Example 1, (7α,14β,15β,17α)-17-(Hydroxymethyl)-7-methyl-14,15-methyleneestr-4-en-3-one]: the melting point was in the range of 137 to 140 °C.

For the next data set, the system named is human androgen receptor. The experiment in a line: androgenic activity rating (procedures described above; which test underlies the rating is not stated). More on the design: key: −: no androgenic activity found; +: androgenic activity found; ++: high androgenic activity; +++: excellent androgenic activity; prodrug. The note with it: compounds of the invention; rating scheme of Example 18. On the procedure:
Androgenic activity can be measured in various ways. Thus, the potency of androgens can be determined in vitro using the cytoplasmic androgen receptor from human breast tumor cells (MCF-7 cell line); see Bergink, E. W. et al, Comparison of the receptor binding properties of nandrolone and testosterone under in vitro and in vivo conditions, J. Steroid Biochem. 22, 831-836 (1985). It is also possible to use Chinese hamster ovary (CHO) cells transfected with the human androgen receptor (incubation time 16 h, temperature 4° C.) and compared with the affinity of 5α-dihydrotestosterone [according to the procedure described by Bergink, E. W. et al, J. Steroid Biochem. 19, 1563-1570 (1983)]. The transactivative androgen activity of the compounds of the invention can be measured, e.g. in Chinese hamster ovary cells (CHO) transfected with the human androgen receptor (hAR), in combination with a mouse mammary tumor virus (MMTV), and luciferase receptor gene (incubation time 16 h, temperature 37° C.) and compared with the activity of 5α-dihydrotestosterone [according to the procedure described by Schoonen, W. G. E. J. et al, Analyt. Biochem. 261, 222-224 (1998)]. For the in vivo potency determination of androgens the classical Hershberger test can be used. In this test the androgenic (increase in prostate weight) and anabolic activities [increase of the musculus levator ani (MLA)] of a compound are tested in immature castrated rats after daily administration for 7 days; see Hershberger, L. G. et al, Myotrophic activity of 19-Nortestosterone and other steroids determined by modified levator ani muscle method, Proceedings of the society for experimental biology and medicine 83, 175-180 (1953). Additionally, the effect of an androgenic compound on LH suppression can be tested in mature castrated rats according to Kumar, N. et al, The biological activity of 7alpha-methyl-19-nortestosterone is not amplified in male reproductive tract as is that of testosterone, Endocrinology 130, 3677-3683 (1992).
The compounds according to the invention and four reference compounds were tested for drogenic activity (the procedures for which have been described above) and rated according the following scheme: […]
In the case of `C[C@@H]1CC2=CC(=O)CC[C@@H]2[C@H]2CC[C@]3(C)[C@H]([C@@H](C)O)C[C@H]4C[C@]43[C@@H]21` [Example 11b, (7α,14β,15β,17α,20R)-20-hydroxy-7-methyl-14,15-methylene-19-norpregn-4-en-3-one], the “Res. (androgenic activity)” value was “+”.
In the case of `CC(=O)OC[C@]1(F)C[C@H]2C[C@]23[C@H]2[C@H](CC[C@]13C)[C@H]1CCC(=O)C=C1C[C@H]2C` [Example 9a, (7α,14β,15β,17β)-17-[(Acetyloxy)methyl]-17-fluoro-7-methyl-14,15-methyleneestr-4-en-3-one], the “Res. (androgenic activity)” value is recorded as “++”.
For `CC[C@H](O)[C@@H]1C[C@H]2C[C@]23[C@H]2[C@H](CC[C@]13C)[C@H]1CCC(=O)C=C1C[C@H]2C` [Example 13], the “Res. (androgenic activity)” value was “+”.
Regarding `C[C@@H]1CC2=C(CCC(=O)C2)[C@H]2CC[C@]3(C)[C@H](CO)C[C@H]4C[C@]43[C@H]12` [Example 2, (7α,14,β15β,17α)-17-(Hydroxymethyl)-7-methyl-14,15-methyleneestr-5(10)-en-3-one], the “Res. (androgenic activity)” value is recorded as “+”.
On to `C[C@@H]1CC2=C(CC[C@H](O)C2)[C@H]2CC[C@]3(C)[C@H](CO)C[C@H]4C[C@]43[C@H]12` [Example 15b1], for which the “Res. (androgenic activity)” value was “pro”.
In the case of `C[C@@H]1CC2=CC(=O)CC[C@@H]2[C@H]2CC[C@]3(C)[C@H](CO)C[C@H]4C[C@]43[C@@H]21` [Example 1, (7α,14β,15β,17α)-17-(Hydroxymethyl)-7-methyl-14,15-methyleneestr-4-en-3-one], the “Res. (androgenic activity)” value is listed as “+++”.
On to `CC1=C2C[C@@H](C)[C@@H]3[C@H](CC[C@]4(C)[C@H](CO)C[C@H]5C[C@@]534)[C@H]2CCC1=O` [Example 4, (7α,14β,15β,17α)-17-(Hydroxymethyl)-4,7-dimethyl-14,15-methyleneestr-4-en-3-one], for which the “Res. (androgenic activity)” value was “++”.
`C[C@@H]1CC2=C(CC[C@@H](O)C2)[C@H]2CC[C@]3(C)[C@H](CO)C[C@H]4C[C@]43[C@H]12` [Example 15b2, (3α,7α,14β,15β,17α)-3-Hydroxy-7-methyl-14,15-methyleneestr-5(10)-ene-17-methanol]: the “Res. (androgenic activity)” value is given as “Pro”.
Regarding `CC(=O)OC[C@@H]1C[C@H]2C[C@]23[C@H]2[C@H](CC[C@]13C)[C@H]1CCC(=O)C=C1C[C@H]2C` [Example 14], the “Res. (androgenic activity)” value is reported as “++”.
On the same count and under the same terms, next, `C[C@H]1[C@H]2C[C@]23[C@H]2[C@H](CC[C@]3(C)[C@@H]1CO)[C@H]1CCC(=O)C=C1C[C@H]2C` [Example 7, (7α,14β,15β16β,17α)-17-(Hydroxymethyl)-7,16-dimethyl-14,15-methyleneestra-4-en-3-one]: “+”.
Turning to `C[C@@H]1CC2=CC(=O)CC[C@@H]2[C@H]2CC[C@]3(C)[C@](O)(CO)C[C@H]4C[C@]43[C@@H]21` [Example 8, (7α,14β,15β,17β)-17-Hydroxy-17-(hydroxymethyl)-7-methyl-14,15-methyleneestr-4-en-3-one], the “Res. (androgenic activity)” value was “+”.
Take `C[C@@H]1CC2=C[C@@H](O)CC[C@@H]2[C@H]2CC[C@]3(C)[C@H](CO)C[C@H]4C[C@]43[C@@H]21` [Example 15a, (3β,7α,14β,15β,17α)-3-Hydroxy-7-methyl-14,15-methyleneestr-4-ene-17-methanol]: the “Res. (androgenic activity)” value is listed as “+++”.
In the case of `C[C@@H]1CC2=CC(=O)CCC2=C2CC[C@]3(C)[C@H](CO)C[C@H]4C[C@]43[C@@H]21` [Example 3, (7α,14β,15β17α)-17-(Hydroxymethyl)-7-methyl-14,15-methyleneestra-4,9-dienes-3-one], the “Res. (androgenic activity)” value is listed as “++”.
Regarding `C[C@@H]1CC2=C[C@@H](O)CC[C@@H]2[C@H]2CC[C@]3(C)[C@](O)(CO)C[C@H]4C[C@]43[C@@H]21` [Example 15c1, (3β,7α,14β,15β,17β)-3,17-Dihydroxy-7-methyl-14,15-methyleneestr-4-ene-17methanol], the “Res. (androgenic activity)” value is “+”.
Take `C[C@H](O)[C@@H]1C[C@H]2C[C@]23[C@H]2[C@H](CC[C@]13C)[C@H]1CCC(=O)C=C1C[C@H]2C` [Example 11a, (7α,14β,15β,17α,20S)-20-Hydroxy-7-methyl-14,15-methylene-19-norpregn-4-en-3-one]: the “Res. (androgenic activity)” value was “++”.
On to `C[C@@H]1CC2=CC(=O)CC[C@@H]2[C@H]2CC[C@]3(C)[C@H](C(C)(C)O)C[C@H]4C[C@]43[C@@H]21` [Example 12, (7α,14β,15β,17α)-20-Hydroxy-7,20-dimethyl-14,15-methylene-19-norpregn-4-en-3-one], for which the “Res. (androgenic activity)” value is recorded as “+”.
With `CC(=O)OC[C@]1(F)C[C@H]2C[C@]23[C@@H]2[C@H](C)CC4=C(CCC(=O)C4)[C@H]2CC[C@]13C` [Example 10, (7α,14β,15β,17β)-17-[(Acetyloxy)methyl]-17-fluoro-7-methyl-14,15-methyleneestr-5(10)-en-3-one], the “Res. (androgenic activity)” value is “+”.
As for `CC[C@]12CC[C@H]3[C@@H]([C@H](C)CC4=CC(=O)CC[C@@H]43)[C@]13C[C@@H]3C[C@H]2CO` [Example 6, (7α,14β,15β,17α)-13-Ethyl-17-(hydroxymethyl)-7-methyl-14,15-methylenegon-4-en-3-one], the “Res. (androgenic activity)” value is “+++”.
Turning to `C[C@@H]1CC2=CC(=O)CC[C@@H]2[C@H]2CC[C@]3(C)[C@](F)(CO)C[C@H]4C[C@]43[C@@H]21` [Example 9b, (7α,14β,15β,17β)-17-fluoro-17-(hydroxymethyl)-7-methyl-14,15-methyleneestra-4-en-3-one], the “Res. (androgenic activity)” value is recorded as “++”.
`CC[C@@H]1CC2=CC(=O)CC[C@@H]2[C@H]2CC[C@]3(C)[C@H](CO)C[C@H]4C[C@]43[C@H]12` [Example 5, (7α,14β,15β,17α)-7-Ethyl-17-(hydroxymethyl)-14,15-methyleneestr-4-en-3-one]: the “Res. (androgenic activity)” value is reported as “++”.
The same measure, in the same setting: next, `C[C@@H]1CC2=C[C@H](O)CC[C@@H]2[C@H]2CC[C@]3(C)[C@](O)(CO)C[C@H]4C[C@]43[C@@H]21` [Example 15c2, (3α,7α,15β,17β)-3,17-Dihydroxy-7-methyl-14,15-methyleneestr-4-ene-17-methanol]: “+”.
